Measurements reported in ChEMBL document CHEMBL4024704, “Idiopathic Pulmonary Fibrosis: Current Status, Recent Progress, and Emerging Targets” (J Med Chem, 2017).
Blank lines part the entries; values can stand above or below the compound they belong to.

Experiments:
[1] = tested on: NIH3T3; experiment: Antiproliferative activity against mouse NIH/3T3 cells by MTT assay; assay type: cell-based
[2] = biological target: T1, Interleukin-8 receptors, CXCR1/CXCR2 (Homo sapiens) (UniProt P25025+P25024); experiment: Inhibition of GROalpha interaction with CXCR1/CXCR2 in human PMN leukocytes assessed as reduction in leukocyte migration after 5 days in presence of Diff-Quick staining by matrigel based microscopic analysis; assay type: cell-based; conditions: concentration not given here
[3] = biological target: T1, Interleukin-8 receptors, CXCR1/CXCR2 (Homo sapiens); experiment: Inhibition of IL-8 interaction with CXCR1/CXCR2 in human PMN leukocytes assessed as reduction in leukocyte migration after 5 days in presence of Diff-Quick staining by matrigel based microscopic analysis; assay type: cell-based; conditions: concentration not given here
[4] = Inhibition of Wnt/beta-catenin signaling in human NL-20 cells by beta-catenin-based reporter assay; assay type: cell-based; conditions: NL20
[5] = tested on: NIH3T3; experiment: Antiproliferative activity against mouse NIH/3T3 cells after 72 hrs by MTT assay; assay type: cell-based; conditions: NIH3T3, 72 h
[6] = biological target: T1, Interleukin-8 receptors, CXCR1/CXCR2 (Homo sapiens); experiment: Inhibition of […] interaction with CXCR1/CXCR2 in human PMN leukocytes assessed as reduction in leukocyte migration after 5 days in presence of Diff-Quick staining by matrigel based microscopic analysis; assay type: cell-based; conditions: concentration not given here
[7] = tested on: A549; experiment: Anticancer activity against human A549 cells after 24 hrs by cell titer 96 aqueous one solution based assay; assay type: functional; conditions: A549, 24 h
[8] = Inhibition of TGF-beta (unknown origin); design: species or system Homo sapiens
[9] = tested on: NIH3T3; experiment: Antiproliferative activity against mouse NIH/3T3 cells; assay type: cell-based
[10] = tested on: Rattus norvegicus; experiment: Antifibrotic activity in […] rat bleomycin-induced pulmonary fibrosis model assessed as hydroxyproline content in lung at 0.04 g/day administered via oral gavage by spectrophotometric analysis; assay type: functional
[11] = tested on: NIH3T3; experiment: Anticancer activity against mouse NIH/3T3 cells after 24 hrs by cell titer 96 aqueous one solution based assay; conditions: NIH3T3, 24 h
[12] = Elimination half life in healthy human at 801 mg; assay type: ADME; conditions: in vivo, read-out: beta t1/2 (converted)
[13] = tested on: Rattus norvegicus; experiment: Anti-inflammatory activity in Sprague-Dawley rat assessed as inhibition of LPS-induced TNFalpha production administered via oral gavage for 1 hr followed by LPS challenge measured after 1.5 hrs by ELISA; assay type: functional
[14] = biological target: Disintegrin and metalloproteinase domain-containing protein 17 (Homo sapiens, UniProt P78536); experiment: Inhibition of recombinant TACE catalytic domain (unknown origin) using pro-TNFalpha peptide Abz-LAQAVRSSSR-Dpa as substrate preincubated for 10 mins followed by substrate addition measured after 10 mins by FRET assay
[15] = biological target: Cathepsin B (Homo sapiens, UniProt P07858); experiment: Inhibition of human liver cathepsin B using Boc-Leu-Arg-Arg-AMC as substrate preincubated for 15 mins followed by substrate addition measured after 30 mins by spectrofluorimetric analysis
[16] = tested on: A549; experiment: Antiproliferative activity against human A549 cells after 72 hrs by MTT assay; assay type: functional, cell-based; conditions: A549, 72 h
[17] = biological target: T2, Mitogen-activated protein kinase kinase kinase 5 (Homo sapiens, UniProt Q99683); experiment: Inhibition of recombinant human ASK1 using STK3 peptide as substrate incubated for 30 mins followed by ATP addition measured for 3 hrs by TR-FRET assay
T2 sequence (Q99683 whole entry): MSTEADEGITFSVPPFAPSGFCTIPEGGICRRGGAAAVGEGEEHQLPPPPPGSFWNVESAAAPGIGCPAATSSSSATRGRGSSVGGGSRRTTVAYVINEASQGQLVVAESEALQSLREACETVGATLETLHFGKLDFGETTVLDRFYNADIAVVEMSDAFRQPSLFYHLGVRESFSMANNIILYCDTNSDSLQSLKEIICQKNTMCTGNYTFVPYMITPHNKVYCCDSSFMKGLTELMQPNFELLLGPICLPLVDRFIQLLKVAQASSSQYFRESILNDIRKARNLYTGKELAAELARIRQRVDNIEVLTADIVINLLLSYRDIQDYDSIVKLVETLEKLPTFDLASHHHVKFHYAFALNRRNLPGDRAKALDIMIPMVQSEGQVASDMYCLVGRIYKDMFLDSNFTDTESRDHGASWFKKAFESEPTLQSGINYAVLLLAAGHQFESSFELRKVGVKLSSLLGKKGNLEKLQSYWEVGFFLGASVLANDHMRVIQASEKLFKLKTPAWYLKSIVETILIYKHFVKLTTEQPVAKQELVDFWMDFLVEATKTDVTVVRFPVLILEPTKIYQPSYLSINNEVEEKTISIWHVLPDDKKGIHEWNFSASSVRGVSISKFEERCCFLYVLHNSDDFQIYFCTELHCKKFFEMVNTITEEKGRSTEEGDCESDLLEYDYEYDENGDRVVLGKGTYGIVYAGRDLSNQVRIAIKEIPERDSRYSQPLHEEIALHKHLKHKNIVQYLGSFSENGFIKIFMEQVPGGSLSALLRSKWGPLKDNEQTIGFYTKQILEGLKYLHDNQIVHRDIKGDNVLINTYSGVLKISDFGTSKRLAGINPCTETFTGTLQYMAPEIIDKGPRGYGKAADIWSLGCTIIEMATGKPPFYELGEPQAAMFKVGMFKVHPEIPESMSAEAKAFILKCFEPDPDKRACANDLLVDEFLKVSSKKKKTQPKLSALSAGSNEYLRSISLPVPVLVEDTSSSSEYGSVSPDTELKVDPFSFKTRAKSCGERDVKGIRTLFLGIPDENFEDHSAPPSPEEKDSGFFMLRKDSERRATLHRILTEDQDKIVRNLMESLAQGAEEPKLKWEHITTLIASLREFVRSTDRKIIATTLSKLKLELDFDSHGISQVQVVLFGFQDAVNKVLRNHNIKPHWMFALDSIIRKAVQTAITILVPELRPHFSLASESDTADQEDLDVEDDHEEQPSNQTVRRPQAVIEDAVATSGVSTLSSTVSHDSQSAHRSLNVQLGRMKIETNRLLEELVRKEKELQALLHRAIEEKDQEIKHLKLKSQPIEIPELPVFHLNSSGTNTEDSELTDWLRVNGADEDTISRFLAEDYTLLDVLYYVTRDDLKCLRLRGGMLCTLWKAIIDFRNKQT

Sequence of Disintegrin and metalloproteinase domain-containing protein 17 (P78536 whole entry, the tested form may be a part): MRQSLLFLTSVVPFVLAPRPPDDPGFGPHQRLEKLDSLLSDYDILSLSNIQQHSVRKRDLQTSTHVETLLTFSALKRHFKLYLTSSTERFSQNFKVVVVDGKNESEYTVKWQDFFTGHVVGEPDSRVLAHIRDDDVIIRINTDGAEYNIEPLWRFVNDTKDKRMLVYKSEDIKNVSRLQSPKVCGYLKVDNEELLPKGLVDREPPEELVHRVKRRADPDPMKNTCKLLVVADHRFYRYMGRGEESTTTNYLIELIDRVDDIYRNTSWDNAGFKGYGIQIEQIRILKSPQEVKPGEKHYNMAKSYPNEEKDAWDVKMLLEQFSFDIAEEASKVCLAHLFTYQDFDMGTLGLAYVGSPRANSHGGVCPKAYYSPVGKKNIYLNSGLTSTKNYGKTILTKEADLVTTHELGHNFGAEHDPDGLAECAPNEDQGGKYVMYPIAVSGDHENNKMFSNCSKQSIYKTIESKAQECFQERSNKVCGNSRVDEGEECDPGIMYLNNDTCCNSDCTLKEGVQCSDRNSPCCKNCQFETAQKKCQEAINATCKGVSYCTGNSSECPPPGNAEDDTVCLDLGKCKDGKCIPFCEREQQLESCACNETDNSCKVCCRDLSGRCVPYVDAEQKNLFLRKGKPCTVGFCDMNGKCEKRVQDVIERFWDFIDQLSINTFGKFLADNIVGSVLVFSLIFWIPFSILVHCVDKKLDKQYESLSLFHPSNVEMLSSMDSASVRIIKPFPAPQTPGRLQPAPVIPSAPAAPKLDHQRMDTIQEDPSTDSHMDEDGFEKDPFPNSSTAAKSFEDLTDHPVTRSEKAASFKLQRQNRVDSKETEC

SMILES: Cc1ccc(=O)n(-c2cccc(F)c2)c1 [FLUOROFENIDONE]
- IC50 [1]: 4200 µM

SMILES: CC(C)Nc1cncc(-c2cnc3[nH]nc(-c4nc5c(-c6cncc(F)c6)cncc5[nH]4)c3c2)c1
- IC50 [4]: 0.067 µM

SMILES: O=c1ccc(CNc2ccccc2F)cn1Cc1ccccc1
- IC50 [5]: 3 µM

SMILES: C[C@@H](C(=O)NCCN1CCCC1)c1ccc(OS(=O)(=O)C(F)(F)F)cc1
- inhibition [2]: 0%
- inhibition [3]: 52%
- inhibition [6]: 65%

SMILES: CN(C)c1cncc(-c2cnc3[nH]nc(-c4nc5c(-c6cccs6)cncc5[nH]4)c3c2)c1
- IC50 [4]: 1.09 µM

SMILES: CO[C@H]1O[C@H](CNc2ccccc2Cn2cc(C(F)(F)F)ccc2=O)[C@@H](O)[C@H](O)[C@H]1O
- IC50 [9]: 170 µM

SMILES: O=C(O)c1cc2c(O)cccc2n(-c2ccc(F)cc2Cl)c1=O
- IC50 [1]: 90 µM

SMILES: CCOc1ccc(-n2c(C)cc(C)c(C#N)c2=O)cc1
- Activity [10]: 119.55 µmol

SMILES: Cc1cccc(-n2cc(COc3ccccc3)ccc2=O)c1
- IC50 [11]: 16 µM

SMILES: CNC(=O)C1c2nc(C3CCC(NC(=O)COC)CC3)nc(-c3ccc(F)cc3OC3CC3)c2NC1C (stereo not given)
- inhibition (INH) [13]: 7 - 99%

SMILES: CNC(=O)C1c2nc(C3CCC(NC(C)=O)CC3)nc(-c3cc(C(F)(F)F)ccc3OC3CC3)c2NC1C (stereo not given)
- inhibition (INH) [13]: 7 - 99%

SMILES: COc1ccc2c(O[C@@H]3C[C@H](C(=O)N[C@@H](CC4CC4)C(=O)C(=O)NC4CC4)N(C[C@@H](NC(=O)NC(C)(C)C)C(C)(C)C)C3)nccc2c1
- IC50 [15]: 0.027 µM

SMILES: CNC(=O)C1c2nc(C3CCC(NC(=O)COC)CC3)nc(-c3cc(C)ccc3OC3CC3)c2NC1C (stereo not given)
- inhibition (INH) [13]: 7 - 99%

SMILES: C[C@@H](C(=O)NCCCN1CCCC1)c1ccc(OS(=O)(=O)C(F)(F)F)cc1
- inhibition [2]: 0%
- inhibition [3]: 51%
- inhibition [6]: 67%

SMILES: CCC(=O)NC1CCC(c2nc(-c3cc(C(F)(F)F)ccc3OC3CC3)c3c(n2)C(C(=O)NC)C(C)N3)CC1 (stereo not given)
- inhibition (INH) [13]: 7 - 99%

SMILES: O=c1ccc2c(n1-c1ccc(Br)cc1)CCCC2O (stereo not given)
- IC50 [1]: 300 µM

SMILES: CNC(=O)C1c2nc(C3CCC(NC(=O)COC)CC3)nc(-c3cc(C(F)(F)F)ccc3OC3CC3)c2NC1C (stereo not given)
- inhibition (INH) [13]: 7 - 99%

SMILES: O=c1ccc(COc2ccccc2)cn1-c1ccc(Cl)cc1
- IC50 [11]: 14 µM

SMILES: CCOc1ccc(-n2c(N)c(C#N)c(-c3ccccc3)c(C#N)c2=O)cc1
- Activity [10]: 48.55 µmol

SMILES: CC(n1cnnc1-c1nc(NC(=O)c2cc(-n3cnc(C4CC4)c3)c(N3CCCCC3)cn2)cs1)C(F)(F)F (stereo not given)
- IC50 [17]: 0.0007 µM

Second part, led by results:

- inhibition [2]: 27%
- inhibition [3]: 67%
SMILES: CCC(=O)c1cccc(CC(=O)O)c1Cl

- inhibition [2]: 0%
- inhibition [3]: 67%
SMILES: Cc1cc(CC(C)C)ccc1CC(=O)NS(C)(=O)=O

- IC50 [7]: 130 µM
SMILES: Cc1cccc(-n2cc(CNc3ccccc3)ccc2=O)c1

- IC50 [8]: 0.07 µM
SMILES: CNC(=O)c1cnccc1Nc1nc(-c2cc(Cl)ccc2F)nc2ncccc12

- half-life [12]: 3 h
SMILES: Cc1ccc(=O)n(-c2ccccc2)c1 [PIRFENIDONE]
- Activity [10]: 158.39 µmol
- IC50 [5]: 454 µM

- IC50 [14]: 0.0006 µM
SMILES: Cc1cc(COc2ccc(S(=O)(=O)N[C@@H]3CCC[C@@H]3C(=O)NO)cc2)c2ccccc2n1

- IC50 [16]: 20 µM
SMILES: COc1ccc(Cn2cc(COc3ccc(F)cc3)ccc2=O)cc1
- IC50 [5]: 55 µM

- IC50 [4]: 0.175 µM
SMILES: Nc1cncc(-c2cnc3[nH]nc(-c4nc5c(-c6cccc(F)c6)cncc5[nH]4)c3c2)c1

- IC50 [8]: 0.02 µM
SMILES: NC(=O)c1cnccc1Nc1nc(-c2cc(Cl)ccc2F)nc2ncccc12

- IC50 [16]: 130 µM
SMILES: Cc1cccc(NCc2ccc(=O)n(Cc3ccccc3)c2)c1

- IC50 [4]: 0.44 to 1.9 µM
SMILES: CN(C)c1cncc(-c2cnc3[nH]nc(-c4nc5c(-c6cccc(F)c6)cncc5[nH]4)c3c2)c1
